# Earlier results, collected in PMC12308805, “Ultrahigh-Throughput Virtual Screening Strategies against PPI Targets: A Case Study of STAT Inhibitors” (Journal of Chemical Information and Modeling, 2025).
# Square brackets hold non-standard residues; d marks the D form. Peptide text beside a SMILES is read from it. * marks the point of attachment. pY = N[C@@H](Cc1ccc(OP(=O)(O)O)cc1)C(=O)O; NH(1R-phenylethyl) = C[C@@H](N*)c1ccccc1
# Tested on: STAT3
# Conditions: sheet 6QHD_actives_decoys, retrospective screening set for STAT3 SH2 domain (PDB 6QHD); decoys are presumed inactives, not tested; ref DUD-E; cited from earlier work
row,Structure (SMILES),Type
1,CC(=O)N[C@H]1[C@@H](OC(=O)CCn2c(=O)oc3ccccc32)O[C@@H](COC(C)=O)[C@@H](OC(C)=O)[C@H]1OC(C)=O [Decoy931],Inactive (Decoy)
2,C[C@H](OC(=O)c1sccc1NS(C)(=O)=O)C(=O)NCC(=O)Nc1ccc(F)c(F)c1F [Decoy852],Inactive (Decoy)
3,C/C=C(/C[C@H](O)N(C=O)Cc1cnc(C)nc1N)SS/C(=C/C)C[C@@H](O)N(C=O)Cc1cnc(C)nc1N [Decoy935],Inactive (Decoy)
4,CCN(CC)C(=O)c1c[nH]c2ccc(S(=O)(=O)Nc3ccc4c(c3)OCCO4)cc2c1=O [Decoy907],Inactive (Decoy)
5,CCOC(=O)c1ccc(NC(=O)C(=O)NCc2ccc(/C=C3/C(=O)N(c4ccc(C)c(Cl)c4)C(C)=C3C(=O)OC)o2)cc1 [Decoy845],Inactive (Decoy)
6,COc1c([C@@H]2OC[C@H](OC(C)=O)[C@@H](OC(C)=O)[C@H]2OC(C)=O)c(O)cc2oc(-c3ccc(O[C@H]4O[C@@H](CO)[C@@H](O)[C@@H](O)[C@H]4O)cc3)cc(=O)c12 [Decoy774],Inactive (Decoy)

# Same assay, conditions: sheet 6QHD_actives_decoys; known STAT3 actives of the retrospective screening set; ref ChEMBL / literature; cited from earlier work
row,Structure (SMILES),Type (known STAT3 active)
1,CC(=O)N[C@@H](Cc1ccc(OP(=O)(O)O)cc1)C(=O)N[C@@H](CC(C)C)C(=O)N1CCC[C@H]1C(=O)N[C@@H](CCC(N)=O)C(=O)N[C@H](C)c1ccccc1 [CHEMBL193433] (Ac-[pY]LPQ-{NH(1R-phenylethyl)}),Active

# Same assay, conditions: sheet 6QHD_actives_decoys; retrospective screening set for STAT3 SH2 domain (PDB 6QHD); […]; ref DUD-E; cited from earlier work
row,Structure (SMILES),Type
1,COC1=C[C@]23CCCN2CCc2cc4c(cc2[C@@H]3[C@@H]1OC(=O)[C@@](O)(CCCC(C)(C)O)CC(=O)O)OCO4 [Decoy432],Inactive (Decoy)

# Same assay, conditions: sheet 6QHD_actives_decoys; retrospective screening set for STAT3 SH2 domain (PDB 6QHD); decoys generated with DUD-E and presumed inactive, not tested; ref DUD-E; cited from earlier work
row,Structure (SMILES),Type
1,CC(=O)O[C@H]1[C@H](O)[C@H]([C@@](C)(O)CC[C@@H](O)C(C)(C)O)[C@@]2(C)CC[C@@]34C[C@@]35CC[C@H](O[C@@H]3OC[C@@H](O)[C@H](O)[C@H]3O)C(C)(C)[C@@H]5CC[C@H]4[C@]12C [Decoy347],Inactive (Decoy)
2,COc1ccc([C@H]2Oc3c(OC)cc(CCCO)cc3[C@@H]2CO)cc1O[C@@H]1O[C@@H](CO)[C@@H](O)[C@@H](O)[C@@H]1O [Decoy527],Inactive (Decoy)
3,COC(=O)c1ccc2c(=O)n(CCc3ccc(S(N)(=O)=O)cc3)c(SCC(=O)Nc3ccc(C)cc3)nc2c1 [Decoy496],Inactive (Decoy)
4,CN(Cc1cnc2nc(N)nc(N)c2n1)c1ccc(C(=O)N[C@H](CCC(=O)NCCNC(=O)CCCC[C@@H]2SC[C@@H]3NC(=O)N[C@@H]32)C(=O)O)cc1 [Decoy666],Inactive (Decoy)
5,CCCCCCCCCCC/C=C/C(=O)N[C@@H]1[C@@H](O[C@H]2O[C@@H](CO)[C@@H](O)[C@@H](O)[C@H]2NC(C)=O)O[C@@H](C[C@H](O)[C@H]2O[C@@H](n3ccc(=O)[nH]c3=O)[C@@H](O)[C@H]2O)[C@@H](O)[C@H]1O [Decoy558],Inactive (Decoy)
6,CC[C@@H](O)[C@@](C)(O)/C=C(\C)C(=O)[C@H](C)C[C@@](C)(OC)[C@H](O[C@@H]1O[C@H](C)C[C@H](N(C)C)[C@H]1O)[C@@H](C)[C@H](O[C@H]1C[C@@](C)(OC)[C@@H](O)[C@H](C)O1)[C@@H](C)C(=O)O [Decoy657],Inactive (Decoy)
7,Nc1cnn([C@@H]2O[C@@H](COC(=O)c3ccccc3)[C@H](OC(=O)c3ccccc3)[C@@H]2OC(=O)c2ccccc2)c(=O)n1 [Decoy672],Inactive (Decoy)
8,Cc1cc(NS(=O)(=O)c2ccc(NC(=O)CCC(=O)Nc3ccc(S(=O)(=O)Nc4cc(C)on4)cc3)cc2)no1 [Decoy702],Inactive (Decoy)
9,CC(=O)O[C@@H]1[C@@H](O)[C@@H](O[C@@H](C/N=C/c2ccc(O)c3ccccc23)[C@@H](CO)O[C@H](O)C/N=C/c2ccc(O)c3ccccc23)O[C@@H](CO)[C@H]1O [Decoy410],Inactive (Decoy)
10,CC(=O)O[C@H]([C@@H](OC(C)=O)[C@H](OC(C)=O)C(=O)NC1CCCCCC1)[C@H](OC(C)=O)C(=O)NC1CCCCCC1 [Decoy426],Inactive (Decoy)
11,CCCCCOc1ccc([C@@H]2C(C(=O)c3c(C)nc4ccccn34)=C(O)C(=O)N2CCN(C)C)cc1OCC [Decoy423],Inactive (Decoy)
12,CCOC(=O)c1ccc(NC(=O)COc2cc(Br)c([C@H]3NC(=S)N=C(C)/C3=C(/O)OC)cc2OC)cc1 [Decoy489],Inactive (Decoy)
